Where a name gives a salt, the structure may show the parent alone.
| melting point | SMILES |
| --- | --- |
| 188 to 195 °C | Cc1ccc2c3c(ccc2n1)OCC(CNCCCc1c[nH]c2c(F)cc(F)cc12)O3 (stereo not drawn) (as salt: fumarate) [Example 13, N-[3-(5,7-Difluoro-1H-indol-3-yl)propyl]-N-(8-methyl-2,3-dihydro-[1,4]dioxino[2,3-f]quinolin-2-ylmethyl)amine] |
| 210 to 214 °C | Cc1ccc2c3c(ccc2n1)OC[C@H](CNCCc1coc2ccccc12)O3 (as salt: fumarate) [Example 17] |
| 165 to 170 °C | Cc1ccc2c3c(ccc2n1)OC[C@H](CNCCCc1coc2ccccc12)O3 (as salt: fumarate) [Example 18] |
| 155 to 160 °C | COc1cccc2c(CCCNCC3COc4ccc5nc(C)ccc5c4O3)coc12 (stereo not drawn) (as salt: fumarate) [Example 19, N-[3-(7-Methoxy-1-benzofuran-3-yl)propyl]-N-(8-methyl-2,3-dihydro-[1,4]dioxino[2,3-f]quinolin-2-ylmethyl)amine] |
| 185 to 186 °C | Cc1ccc2c3c(ccc2n1)OC[C@H](CNCCCc1csc2ccccc12)O3 (as salt: fumarate) [Example 20] |
| 124 to 127 °C | Cc1ccc2c3c(ccc2n1)OCC(CNCCc1csc2ccccc12)O3 (stereo not drawn) (as salt: fumarate) [Example 21, N-[2-(1-Benzothien-3-yl)ethyl]-N-(8-methyl-2,3-dihydro-[1,4]dioxino[2,3-f]quinolin-2-ylmethyl)amine] |
| 123 to 127 °C | Cc1ccc2c3c(ccc2n1)OC[C@H](CN(C)CCCc1csc2ccccc12)O3 (as salt: fumarate) [Example 22, N-[3-(1-Benzothien-3-yl)propyl]-N-methyl-N-(8-mthyl-2,3-dihydro-[1,4]dioxino[2,3-f]quinolin-2-ylmthyl)amin] |
| 127 to 130 °C | Cc1ccc2c3c(ccc2n1)OCC(CNCCCCc1coc2ccccc12)O3 (stereo not drawn) (as salt: fumarate) [Example 28, N-[4-(1-Benzofuran-3-yl)butyl]-N-(8-methyl-2,3-dihydro-[1,4]dioxino[2,3-f]quinolin-2-ylmethyl)amine] |
| 140 to 144 °C | Cc1ccc2c3c(ccc2n1)OC[C@H](CNCCCCc1csc2ccc(Cl)cc12)O3 (as salt: fumarate) [Example 49] |
| 193 to 196 °C | Cc1ccc2c3c(ccc2n1)OC[C@H](CNCCCc1csc2ccc(Cl)cc12)O3 (as salt: fumarate) [Example 50] |
| 117 to 120 °C | Cc1ccc2c3c(ccc2n1)OC[C@H](CNCCCc1csc2ccc(F)cc12)O3 (as salt: fumarate) [Example 51, N-[3-(5-Fluoro-1-benzothien-3-yl)propyl]-N-{[(2S)-8-methyl-2,3-dihydro[1,4]dioxino[2,3-f]quinolin-2-yl]methyl}amine] |
| 87 to 92 °C | CCN(CCCCc1coc2ccccc12)C[C@H]1COc2ccc3nc(C)ccc3c2O1 (as salt: fumarate) [Example 52, N-[4-(1-Benzofuran-3-yl)butyl]-N-ethyl-N-{[(2S)-8-methyl-2,3-dihydro[1,4]dioxino[2,3-f]quinolin-2-yl]methyl}amine] |
| 196 to 199 °C | Fc1ccc2[nH]cc(CCCNC[C@H]3COc4ccc5ncccc5c4O3)c2c1 (as salt: hydrochloride) [Example 14, N-(2,3-Dihydro-[1,4]dioxino[2,3-f]quinolin-2-ylmthyl)-N-[3-(5-fluoro-1H-indol-3-yl)propyl]amine] |
| 91 to 93 °C | Cc1nc2ccc3c(c2o1)O[C@@H](CNCCCc1c[nH]c2ccc(F)cc12)CO3 (as salt: hydrochloride) [Example 23, N-[3-(5-Fluoro-1H-indol-3-yl)propyl]-N-(2-methyl-7,8-dihydro-[1,4]dioxino[2,3-g][1,3]benzoxazol-8-ylmethyl)amine] |
| 136 to 139 °C | Cc1nc2ccc3c(c2o1)OC(CN(C)CCCc1c[nH]c2ccc(F)cc12)CO3 (stereo not drawn) (as salt: hydrochloride) [Example 24, N-[3-(5-Fluoro-1H-indol-3-yl)propyl]-N-methyl-N-(2-methyl-7,8-dihydro[1,4]dioxino[2,3-g][1,3]benzoxazol-8-ylmethyl)amine] |
| 158 to 175 °C | CCN(CCCc1c[nH]c2ccc(F)cc12)CC1COc2ccc3nc(C)ccc3c2O1 (stereo not drawn) (as salt: hydrochloride) [Example 25, N-Ethyl-N-[3-(5-Fluoro-1H-indol-3-yl)propyl]-N-(8-methyl-2,3-dihydro-[1,4]dioxino[2,3-f]quinolin-2-ylmethyl)amine] |
| 190 to 204 °C | Cc1ccc2c3c(ccc2n1)OCC(CN(C)CCCc1cn(C)c2c(F)cc(F)cc12)O3 (stereo not drawn) (as salt: hydrochloride) [Example 27, N-[3-(5,7-Difluoro-1-methyl-1H-indol-3-yl)propyl]-N-methyl-N-(8-methyl-2,3-dihydro-[1,4]dioxino[2,3-f]quinolin-2-ylmethyl)amine] |
| 170 to 174 °C | Cc1ccc2c3c(ccc2n1)OCC(CNCCCc1c[nH]c2ccc(C#N)cc12)O3 (stereo not drawn) (as salt: hydrochloride) [Example 29, 3-{3-[(8-Methyl-2,3-dihydro-[1,4]dioxino[2,3-f]quinolin-2-ylmethyl)-amino]-propyl}-1H-indole-5-carbonitrile] |
| 148 to 151 °C | Cc1nc2ccc3c(c2o1)O[C@@H](CNCCCc1c[nH]c2ccc(C#N)cc12)CO3 (as salt: hydrochloride) [Example 30, 3-{3-[(2-Methyl-7,8-dihydro-[1,4]dioxino[2,3-g][1,3]benzoxazol-8-ylmethyl)amino]-propyl}-1H-indole-5-carbanitrile] |
| 140 °C (dec.) | Cc1nc2ccc3c(c2o1)O[C@@H](CN(C)CCCc1c[nH]c2ccc(C#N)cc12)CO3 (as salt: hydrochloride) [Example 31, 3-{3-[M thyl-(2-methyl-7,8-dihydro-[1,4]dioxino[2,3[-g][1,3]benzoxazol-8-ylmethyl)-amino]-propyl)}-1H-indole-5-carbonitrile] |
| 154 to 156 °C | Cc1ccc2c3c(ccc2n1)OCC(CNCCCn1ccc2ccc(F)cc21)O3 (stereo not drawn) (as salt: hydrochloride) [Example 33, [3-(6-Fluoro-indol-1-yl)-propyl]-(8-methyl-2,3-dihydro-[1,4]dioxino[2,3-f]quinolin-2-ylmethyl)amine] |
| 75.9 to 83.7 °C | Cc1ccc2c3c(ccc2n1)OCC(CN(C)CCCn1ccc2ccc(F)cc21)O3 (stereo not drawn) (as salt: hydrochloride) [Example 34, [3-(6-Fluoro-indol-1-yl)-propyl]-methyl-(8-methyl-2,3-dihydro-[1,4]dioxino[2,3-f]quinolin-2-ylmethyl)-amine] |
| 229 to 235 °C | Cc1ccc2c3c(ccc2n1)OCC(CNCCCCc1cn(C)c2ccc(F)cc12)O3 (stereo not drawn) (as salt: hydrochloride) [Example 35, [4-(5-Fluoro-1-methyl-1H-indol-3-yl)-butyl]-(8-methyl-2,3-dihydro-[1,4]dioxino[2,3-f]quinolin-2-ylmethyl)-amine] |
| 115 °C (dec.) | CCN(CCCc1c[nH]c2ccc(F)cc12)C[C@H]1COc2ccc3nc(C)oc3c2O1 (as salt: hydrochloride) [Example 36, Ethyl-[3-(5-fluoro-1H-indol-3-yl)-propyl]-(2-methyl-7,8-dihydro-[1,4]dioxino[2,3-g][1,3]benzoxazol-8-ylmethyl)-amine] |
| 122 to 127 °C | Cc1ccc2c3c(ccc2n1)OCC(CNCCCCn1ccc2ccc(F)cc21)O3 (stereo not drawn) (as salt: hydrochloride) [Example 38, [4-(6-Fluoro-indol-1-yl)-butyl]-(8-methyl-2,3-dihydro-[1,4]dioxino[2,3-f]quinolin-2-ylmethyl)-amine] |
| 274 to 275 °C | Cc1ccc2c3c(ccc2n1)OCC(CN(C)CCCc1cn(C)c2ccc(F)cc12)O3 (stereo not drawn) (as salt: hydrochloride) [Example 42, [3-(5-Fluoro-1-methyl-1H-indol-3-yl)-propyl]-methyl-(8-methyl-2,3-dihydro-[1,4]dioxino[2,3-f]quinolin-2-ylmethyl)-amine] |
| 274 to 275 °C | Cc1ccc2c3c(ccc2n1)OCC(CN(C)CCCCc1c[nH]c2ccc(F)cc12)O3 (stereo not drawn) (as salt: hydrochloride) [Example 43, [4-(5-Fluoro-1H-indol-3-yl)-butyl]-methyl-(8-methyl-2,3-dihydro-[1,4]dioxino[2,3-f]quinolin-2-ylmethyl}-amine] |
| 275 to 276 °C | Cc1ccc2c3c(ccc2n1)OCC(CN(C)CCCCc1cn(C)c2ccc(F)cc12)O3 (stereo not drawn) (as salt: hydrochloride) [Example 44, [4-(5-Fluoro-1-methyl-1H-indol-3-yl)-butyl]-methyl-(8-methyl-2,3-dihydro-[1,4]dioxino[2,3-f]quinolin-2-ylmethyl)-amine] |
| 164 to 170 °C | CCCN(CCCc1c[nH]c2ccc(F)cc12)CC1COc2ccc3nc(C)ccc3c2O1 (stereo not drawn) (as salt: hydrochloride) [Example 45, [3-(5-Fluoro-1H-indol-3-yl)-propyl]-(8-methyl-2,3-dihydro-[1,4]dioxino[2,3-f]quinolin-2-ylmethyl)-propyl-amine] |
| 203 to 206 °C | Cc1ccc2c3c(ccc2n1)OCC(CNCCCn1ccc2c(F)cccc21)O3 (stereo not drawn) (as salt: hydrochloride) [Example 46, [3-(4-Fluoro-indol-1-yl)-propyl]-(8-methyl-2,3-dihydro-[1,4]dioxino[2,3-f]quinolin-2-ylmethyl)-amine] |

— patent publication US6800637B2, “Antidepressant indolealkyl derivatives of heterocycle-fused benzodioxan methylamines” (Wyeth, priority 2002, dated 2004)
